# Measured values reported in patent US10314816B2, “Antimicrobial compounds, compositions and methods of use thereof” (Wisconsin Alumni Research Foundation, priority 2012, dated 2019).
# Experiments:
# [1] = test system: C. crescentus strain (MT97); test: In vivo screen with C. crescentus strain that expresses MipZ-YFP; type: cell-based, Caulobacter crescentus; details: 20 μM in agarose pad; data not shown
# Description: In vivo screen with a Caulobacter crescentus strain that expresses MipZ-YFP. Hits from in vitro screens were tested for activity in vivo. A C. crescentus strain (MT97) that expresses mipZ-yfp from the native mipZ promoter was used. An overnight culture of MT97 was diluted to an absorbance (λ=600 nm) of ˜0.1; the diluted culture was grown further for at least 1 hour prior to compound treatment. Compounds were mixed with a solution of 1% agarose in M2G media to achieve a final concentration of 20 μM. The cells (1 μL per pad) were transferred on top of the compound-containing agarose pad, and the cell morphology and localization of MipZ-YFP were imaged for a period of 24 hours using epifluorescence microscopy. In between microscopic observations, the inoculated pads were incubated at 30° C. to promote growth.
# Hits were further screened for antibacterial activity using a Caulobacter crecentus strain that expresses MipZ-YFP as described in Materials and Methods.
# E. tarda = test: MIC of bacterial growth (Table 2); type: cell-based; details: Edwardsiella tarda; E. tarda clinical isolate (Table 2)
# Description: (§1) Determination of the minimum inhibitory concentration (MIC) of bacterial growth. The MIC of various organisms in liquid media was determined using the macrodilution method according to the NCCLS guidelines. For the starting inoculum, cultures were diluted to contain approximately 5×10^5 cells/mL in growth media. To create a two-fold dilution series for the macrodilution technique, each compound was added to the first culture tube (4 mL total volume) at the highest concentration. 2 mL of this culture was diluted into an equal volume of inoculated media (a two-fold dilution). The final volume for each culture was 2 mL.
# V cholera = test: MIC of bacterial growth (Table 2); type: cell-based; details: Vibrio cholerae
# Description: as §1
# K. pneumoniae = test: MIC of bacterial growth (Table 2); type: cell-based; details: Klebsiella pneumoniae; K. pneumoniae clinical isolate (Table 2)
# Description: as §1
# C. crescentus cells = test: Cell lysis observed by phase contrast microscopy; type: cell-based, Caulobacter crescentus
# Description: The lysed cells appear fainter in phase contrast images, compared to un-lysed cells (e.g., a cell in the white circle).
# At high concentrations of DCAP (≥75 μM), cell lysis within minutes after treatment was observed (FIG. 4).
smiles,measurement,setting,value
"OCC(CO)(CO)NCC(O)Cn1c2ccc(Cl)cc2c2cc(Cl)ccc21 (centres unmarked) [DCAP, 2-((3-(3,6-dichloro-9H-carbazol-9-yl)-2-hydroxypropyl)amino)-2-(hydroxymethyl)propane-1,3-diol]",Antibacterial activity in the MipZ-YFP assay,[1],confirmed as having antibacterial activity
same,MIC,E. tarda,200 µM
same,MIC,V cholera,100 µM
same,MIC,K. pneumoniae,100 µM
same,Concentration at which cell lysis was observed within minutes after treatment,C. crescentus cells,≥ 75 µM
